# Assay results published in ChEMBL document CHEMBL3244261, “3-hydroxyisoxazole-5-hydroxamic acid” (1977).
# Calls of active or inactive are those of the source. The rule behind the calls is not given here.
# Key:
# L1210 = experiment: Antitumor activity against mouse L1210 cells allografted in mouse at 100 mg/kg; type: functional, organism-based; parameters: dose 100 mg/kg
# P388 = experiment: Antitumor activity against mouse P388 cells allografted in mouse assessed as tumor growth inhibition at 100 mg/kg relative to control; type: functional
SMILES,Activity (L1210),T/C (P388) [%]
O=C(/C=C(\Cl)C(=O)NO)NO,inactive,154
O=C(NO)c1cc(O)no1,inactive,–
